Measured values reported in patent US20240254087A1, “SELECTIVE, PARTIAL, AND ARRESTIN-BIASED 5-HT2A AGONISTS WITH UTILITY IN VARIOUS DISORDERS” (Saint Joseph's University, priority 2021, published 2024).
Read-outs that look alike come from different tables or passages of the source.

What was measured:
5-HT2B = 5-HT2B (Homo sapiens, UniProt P41595); assay: BRET Gq dissociation, 5-HT2B; type: cell-based; design: expressed in transfected cells; host or cells: HEK293T, transient; settings: for Emax: read-out: 5-HT2B Gq Dissociation (BRET) EMAX ± SEM (%5-HT)
5-HT2B, sequence (P41595 whole entry): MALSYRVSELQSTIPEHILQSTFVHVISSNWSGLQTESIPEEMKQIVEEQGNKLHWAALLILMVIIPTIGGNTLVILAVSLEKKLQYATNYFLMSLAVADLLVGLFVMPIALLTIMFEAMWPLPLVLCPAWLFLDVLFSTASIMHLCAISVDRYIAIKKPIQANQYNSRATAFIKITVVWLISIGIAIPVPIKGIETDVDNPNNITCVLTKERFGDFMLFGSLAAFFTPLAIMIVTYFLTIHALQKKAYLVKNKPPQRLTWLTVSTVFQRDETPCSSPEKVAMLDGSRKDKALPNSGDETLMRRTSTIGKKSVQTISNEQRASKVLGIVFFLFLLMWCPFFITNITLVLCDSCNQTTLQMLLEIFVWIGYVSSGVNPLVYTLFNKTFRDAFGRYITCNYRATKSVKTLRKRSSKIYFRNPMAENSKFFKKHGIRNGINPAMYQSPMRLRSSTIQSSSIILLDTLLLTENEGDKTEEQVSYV
Description: (§1) After at least 18-24 hours, transfected cells were plated in poly-lysine coated 96-well white clear bottom cell culture plates in DMEM containing 1% dialyzed FBS at a density of 25-40,000 cells in 200 μL per well and incubated overnight. After approximately 20-24 hours, media was decanted and cells were washed with 60 μL of drug buffer (1×HBSS, 20 mM HEPES, pH 7.4), followed by 60 μL of drug buffer and pre-incubated in a humidified atmosphere at 37° C. before receiving drug stimulation. Drug stimulation was induced by adding 30 μL of a solution of drug (3X) diluted in McCorvy buffer (1×HBSS, 20 mM HEPES, pH 7.4, supplemented with 0.3% BSA fatty acid free, 0.03% ascorbic acid) and plates were incubated at the indicated time and temperature. Fifteen minutes before reading, 10 μL of the RLuc substrate, either coelenterazine h for β-Arrestin recruitment BRET^1 or coelenterazine 400a for Gq dissociation BRET^2 (Prolume/Nanolight, 5 μM final concentration) was addedper well. Plates were read for luminescence at 485 nm and fluorescent eYFP emission at 530 nm for BRET^1 and at 400 nm and fluorescent GFP2 emission at 510 nm for BRET2 at 1 second per well using a Mithras LB940 (Berthold). The BRET ratios of fluorescence/luminescence were calculated per well and were plotted as a function of drug concentration using Graphpad Prism 8 (Graphpad Software Inc., San Diego, CA).

male C57BL/6J mice = assay: Head-twitch response (HTR) in mice; type: in vivo, mouse; settings: for ED50: Mus musculus
Description: Male C57BL/6J mice (6-8 weeks old) from Jackson Labs (Bar Harbor, ME, USA) were used for the behavioral experiments. The mice were housed on a reversed light-dark cycle (lights on at 1900 h, off at 0700 h) in an AAAC-approved vivarium at the University of California San Diego. Mice were housed up to four per cage in a climate-controlled room and with food and water provided ad libitum except during behavioral testing. Testing was performed between 1000 and 1800 h (during the dark phase of the light-dark cycle). The studies were conducted in accordance with National Institutes Health (NIH) guidelines and were approved by the University of California San Diego Institutional Animal Care and Use Committee.
The mice were allowed to recover from the magnet implantation surgeries for at least 1 week prior to behavioral testing. HTR experiments were conducted in a well-lit room, and the mice were allowed to habituate to the room for at least 1 h prior to testing. Head twitches was assessed in a 12-cm diameter glass cylinder surrounded by a magnetometer coil. Coil voltage was low-pass filtered (2 kHz), amplified, and digitized (20-kHz sampling rate) using a Powerlab/8SP with LabChart v 7.3.2 (ADInstruments, Colorado Springs, CO, USA). […] HTR counts were analyzed using one-way ANOVAs. Dunnett's test was used for post hoc comparisons.

5-HT2A [1] = biological target: T1, 5-HT2A (Homo sapiens, UniProt P28223); assay: cell-based; design: expressed in transfected cells; host or cells: HEK293T, transient; settings: for Emax: read-out: 5-HT2A β-arrestin Emax (% 5-HT), BRET, mean ± SEM
T1 sequence (P28223 whole entry): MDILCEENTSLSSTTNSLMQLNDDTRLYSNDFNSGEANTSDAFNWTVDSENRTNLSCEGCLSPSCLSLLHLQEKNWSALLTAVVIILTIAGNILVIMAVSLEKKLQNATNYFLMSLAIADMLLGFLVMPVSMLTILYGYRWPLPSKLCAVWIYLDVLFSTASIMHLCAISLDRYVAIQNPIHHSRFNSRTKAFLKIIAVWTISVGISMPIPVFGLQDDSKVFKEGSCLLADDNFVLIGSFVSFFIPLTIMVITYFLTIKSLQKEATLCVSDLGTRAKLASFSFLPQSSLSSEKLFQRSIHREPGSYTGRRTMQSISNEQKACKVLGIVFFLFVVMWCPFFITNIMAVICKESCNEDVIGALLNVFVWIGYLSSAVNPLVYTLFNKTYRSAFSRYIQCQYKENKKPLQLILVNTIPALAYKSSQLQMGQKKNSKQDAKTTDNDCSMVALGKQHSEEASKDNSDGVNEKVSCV
Description: as §1, with “Plates were read for luminescence at 485 nm and fluorescent eYFP emission at 530 nm for BRET^1 and at 400 nm and fluorescent GFP2 emission at 510 nm for BRET2 at 1 second per well using a Mithras LB940 (Berthold).” left out

5-HT2A [2] = biological target: T1, 5-HT2A; assay: cell-based; design: expressed in transfected cells; host or cells: HEK293T, transient; settings: for Emax: read-out: 5-HT2A Gq Emax (% 5-HT), BRET, mean ± SEM
Description: as §1, with “Plates were read for luminescence at 485 nm and fluorescent eYFP emission at 530 nm for BRET^1 and at 400 nm and fluorescent GFP2 emission at 510 nm for BRET2 at 1 second per well using a Mithras LB940 (Berthold).” left out

5-HT2C = biological target: T2, 5-HT2C (Homo sapiens, UniProt P28335); assay: BRET Gq dissociation, 5-HT2C; type: cell-based; design: expressed in transfected cells; host or cells: HEK293T, transient; settings: for Emax: read-out: 5-HT2C Gq Dissociation (BRET) EMAX ± SEM (%5-HT)
T2 sequence (P28335 33-458): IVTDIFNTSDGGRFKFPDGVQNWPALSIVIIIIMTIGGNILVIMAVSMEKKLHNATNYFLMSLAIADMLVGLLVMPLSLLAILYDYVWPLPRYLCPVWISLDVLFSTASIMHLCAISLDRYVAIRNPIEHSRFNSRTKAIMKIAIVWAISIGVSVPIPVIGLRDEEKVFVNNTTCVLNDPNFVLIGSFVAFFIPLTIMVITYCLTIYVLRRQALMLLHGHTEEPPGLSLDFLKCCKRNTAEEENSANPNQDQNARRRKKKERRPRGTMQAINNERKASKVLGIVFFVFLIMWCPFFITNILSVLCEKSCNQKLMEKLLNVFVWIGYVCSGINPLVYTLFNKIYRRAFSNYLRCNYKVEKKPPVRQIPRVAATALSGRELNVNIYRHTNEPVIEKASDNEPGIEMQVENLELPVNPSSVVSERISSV
Description: as §1, with “Plates were read for luminescence at 485 nm and fluorescent eYFP emission at 530 nm for BRET^1 and at 400 nm and fluorescent GFP2 emission at 510 nm for BRET2 at 1 second per well using a Mithras LB940 (Berthold).” left out

[3] = SC, except DOI and 25D-NBOMe IP
[4] = read-out: HTR ED50 mg/kg (95% CI), SC, except DOI and 25D-NBOMe IP
[5] = BRET, mean ± SEM, read-out: 5-HT2A β-arrestin recruitment pEC50 (converted)
[6] = BRET, mean ± SEM, read-out: 5-HT2A Gq dissociation pEC50 (converted)
[7] = read-out: 5-HT2C Gq Dissociation (BRET) pEC50 ± SEM (converted)

| Compound | 5-HT2B Gq Dissociation (BRET) EMAX ± SEM (%5-HT) (5-HT2B) | 5-HT2B Gq Dissociation (BRET) pEC50 ± SEM (5-HT2B) | Emax (5-HT2A [1]) [%] | Emax (5-HT2A [2]) [%] | Emax (5-HT2C) [%] | EC50 (5-HT2A [1]; [5]) [nM] | EC50 (5-HT2A [2]; [6]) [nM] | EC50 (5-HT2C; [7]) [nM] | other results |
| --- | --- | --- | --- | --- | --- | --- | --- | --- | --- |
| COc1cc(CCN)c(OC)cc1I [Compound 2C-I, reference compound] | 101.0 ± 2.1 %5-HT | 7.72 ± 0.07 | – | – | – | – | – | – | Max HTR response during a 30-min assessment (maximum counts ÷ baseline response) (male C57BL/6J mice): 13.8-fold increase; HTR ED50 μmol/kg (95% CI) (male C57BL/6J mice; [3]): 2.42 (1.46-4.02) μmol/kg; HTR ED50 mg/kg (95% CI) (male C57BL/6J mice; [3]): 0.83 (0.50-1.38) mg/kg; 5-HT2A β-arrestin Emax (% 5-HT) (5-HT2A [1]; BRET, mean ± SEM): 74.3 ± 1.6 % 5-HT; 5-HT2A β-arrestin recruitment pEC50 (5-HT2A [1]; BRET, mean ± SEM): 8.25 ± 0.07; 5-HT2A Gq Emax (% 5-HT) (5-HT2A [2]; BRET, mean ± SEM): 93.4 ± 1.4 % 5-HT; 5-HT2A Gq dissociation pEC50 (5-HT2A [2]; BRET, mean ± SEM): 8.83 ± 0.05; 5-HT2C Gq Dissociation (BRET) EMAX ± SEM (%5-HT) (5-HT2C): 106.9 ± 1.5 %5-HT; 5-HT2C Gq Dissociation (BRET) pEC50 ± SEM (5-HT2C): 9.34 ± 0.05 |
| COc1cc(OC)c(OC)cc1CCNCc1cccc(I)c1 [(53), N-(3-iodobenzyl)-2-(2,4,5-trimethoxyphenyl)-ethan-1-amine] | – | – | 82.7 ± 5.4 | 50.1 ± 1.9 | 91.5 ± 3.2 | – | – | – | EC50 (5-HT2B): 0.724 nM; Emax (5-HT2B): 20.3 ± 2.8%; Induction of the HTR in mice (in words) (male C57BL/6J mice): failed to induce the HTR; Max HTR response during a 30-min assessment (maximum counts ÷ baseline response) (male C57BL/6J mice): 1.1-fold increase; ED50 (male C57BL/6J mice; [4]): > 30 mg/kg; EC50 (5-HT2C): 15.1 nM |
| COc1cc(OC)c(OC)cc1CCNCc1cccc(F)c1F [(65)] | No activity | No activity | 101 ± 2.7 | 76.5 ± 2.3 | 83.3 ± 6.3 | 170 | 64.6 | 200 | – |
| COc1cc(Br)c(CCNCc2cccc(C)c2O)cc1OC [(43), 2-(((2-bromo-4,5-dimethoxyphenethyl)-amino)-methyl)-6-methylphenol] | No activity | No activity | 91.7 ± 3.4 | 65.4 ± 1.4 | 75.4 ± 2 | – | – | – | EC50 (5-HT2A [1]): 6.31 nM; EC50 (5-HT2A [2]): 6.46 nM; EC50 (5-HT2C): 20.9 nM |
| COc1cc(OC)c(OC)cc1CCNCc1cccc(C)c1C [(50)] | No activity | No activity | 73.9 ± 5.4 | 23.6 ± 1 | 30.4 ± 2.7 | 5.75 | 3.47 | 1.55 | – |
| COc1cc(OC)c(OC)cc1CCNCc1cccc2cnccc12 [(56)] | No activity | No activity | 75.8 ± 8.3 | 64.1 ± 1.5 | 80.9 ± 3.4 | 17.4 | 26.3 | 126 | – |
| COc1cc(OC)c(OC)cc1CCNCc1cccc2c1CCCC2 [(52)] | No activity | No activity | 65 ± 4.9 | 43.7 ± 1.1 | 43.6 ± 3.8 | 1.78 | 7.59 | 34.7 | – |
| COc1cc(Br)ccc1CCNCc1cccc(C)c1O [(41)] | No activity | No activity | 86.6 ± 3.9 | 68.7 ± 1.3 | 72.2 ± 1.6 | 2.51 | 2.24 | 4.9 | – |
| COc1cc(OC)c(OC)cc1CCNCc1ccccc1-c1ccco1 [(58)] | – | – | 112 ± 6.2 | 51.9 ± 2.2 | 94 ± 4 | 56.2 | 50.1 | 14.1 | Emax (5-HT2B): 37.6 ± 2%; EC50 (5-HT2B; read-out: 5-HT2B Gq Dissociation (BRET) pEC50 ± SEM (converted)): 3.09 nM |
| COc1cc(Br)c(Br)c(OC)c1CCNCc1cccc2ccccc12 [(35)] | No activity | No activity | – | 30.2 ± 1.5 | 69.8 ± 1.3 | 1.95 | 3.89 | 5.5 | – |
| COc1cc(Cl)ccc1CCNCc1cccc2ccccc12 [(34)] | No activity | No activity | 83.6 ± 3.6 | 25.2 ± 2 | 75.9 ± 1.7 | – | – | 38 | – |
| COc1cc(CCNCc2ccccc2OC)c(OC)cc1C [25D-NBOMe (26)] | – | – | 126 ± 3.4 | ≥ 76 | – | – | – | – | Max HTR response during a 30-min assessment (maximum counts ÷ baseline response) (male C57BL/6J mice): 15.6-fold increase; ED50 (male C57BL/6J mice; read-out: HTR ED50 μmol/kg (95% CI), SC, except DOI and 25D-NBOMe IP): 0.64 µmol/kg; ED50 (male C57BL/6J mice; [4]): 0.23 mg/kg; 5-HT2A Gq Emax (% 5-HT) (5-HT2A [2]; BRET, mean ± SEM): 93.0 ± 1.3 % 5-HT |
| Brc1c2c(c(CCNCc3cccc4ccccc34)c3c1OCC3)OCC2 [(29)] | No activity | No activity | 62.5 ± 2.3 | 31.8 ± 1.4 | 78.1 ± 2.1 | 1.02 | 8.71 | 4.17 | – |
| COc1cc(Br)c(Br)c(OC)c1CCNCc1cccc(C)c1O [(45)] | No activity | No activity | 77.5 ± 6 | 70.5 ± 2 | 81 ± 2.1 | 1.32 | 2.24 | 1.51 | – |
| CCOc1ccc(CCNCc2cccc3ccccc23)cc1OC [(37)] | No activity | No activity | 75.4 ± 2.4 | 29.3 ± 1.9 | 84.5 ± 2.8 | – | – | 263 | – |
| COc1cc(Cl)ccc1CC(C)NCc1cccc(C)c1O (centres unmarked) [(46)] | No activity | No activity | 72.9 ± 5.6 | 67.8 ± 1.6 | 95.5 ± 3.2 | 1.12 | 4.79 | 11.5 | – |
